These results are taken from patent US20230416248A1, “COMPOUNDS AND USES THEREOF” (Foghorn Therapeutics Inc., priority 2020, published 2023).

The target in one test is T1, BRG-1 (Homo sapiens, UniProt P51532).
T1 construct: made in house; host or cells: High Five insect cells
As to the kind of experiment: ATPase catalytic activity of BRG-1, ADP-Glo in vitro biochemical assay. The conditions noted are these: ATPase catalytic activity, ADP-Glo; 30 nM BRG-1, 400 μM ATP; read-out: BRG1 IC50. An outline of the steps:
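BRG-1 ATPase activity was measured by ADP-Glo. Unconsumed ATP was depleted for 40 min at room temperature, then ADP was converted to ATP for 60 min and read as luminescence.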
A general note: ADP-Glo turns the ADP formed in a reaction into a luminescent signal.

The target of another test is T2, BRM (Homo sapiens, UniProt P51531).
T2 construct: made in house; host or cells: High Five insect cells
T2 sequence (P51531 whole entry): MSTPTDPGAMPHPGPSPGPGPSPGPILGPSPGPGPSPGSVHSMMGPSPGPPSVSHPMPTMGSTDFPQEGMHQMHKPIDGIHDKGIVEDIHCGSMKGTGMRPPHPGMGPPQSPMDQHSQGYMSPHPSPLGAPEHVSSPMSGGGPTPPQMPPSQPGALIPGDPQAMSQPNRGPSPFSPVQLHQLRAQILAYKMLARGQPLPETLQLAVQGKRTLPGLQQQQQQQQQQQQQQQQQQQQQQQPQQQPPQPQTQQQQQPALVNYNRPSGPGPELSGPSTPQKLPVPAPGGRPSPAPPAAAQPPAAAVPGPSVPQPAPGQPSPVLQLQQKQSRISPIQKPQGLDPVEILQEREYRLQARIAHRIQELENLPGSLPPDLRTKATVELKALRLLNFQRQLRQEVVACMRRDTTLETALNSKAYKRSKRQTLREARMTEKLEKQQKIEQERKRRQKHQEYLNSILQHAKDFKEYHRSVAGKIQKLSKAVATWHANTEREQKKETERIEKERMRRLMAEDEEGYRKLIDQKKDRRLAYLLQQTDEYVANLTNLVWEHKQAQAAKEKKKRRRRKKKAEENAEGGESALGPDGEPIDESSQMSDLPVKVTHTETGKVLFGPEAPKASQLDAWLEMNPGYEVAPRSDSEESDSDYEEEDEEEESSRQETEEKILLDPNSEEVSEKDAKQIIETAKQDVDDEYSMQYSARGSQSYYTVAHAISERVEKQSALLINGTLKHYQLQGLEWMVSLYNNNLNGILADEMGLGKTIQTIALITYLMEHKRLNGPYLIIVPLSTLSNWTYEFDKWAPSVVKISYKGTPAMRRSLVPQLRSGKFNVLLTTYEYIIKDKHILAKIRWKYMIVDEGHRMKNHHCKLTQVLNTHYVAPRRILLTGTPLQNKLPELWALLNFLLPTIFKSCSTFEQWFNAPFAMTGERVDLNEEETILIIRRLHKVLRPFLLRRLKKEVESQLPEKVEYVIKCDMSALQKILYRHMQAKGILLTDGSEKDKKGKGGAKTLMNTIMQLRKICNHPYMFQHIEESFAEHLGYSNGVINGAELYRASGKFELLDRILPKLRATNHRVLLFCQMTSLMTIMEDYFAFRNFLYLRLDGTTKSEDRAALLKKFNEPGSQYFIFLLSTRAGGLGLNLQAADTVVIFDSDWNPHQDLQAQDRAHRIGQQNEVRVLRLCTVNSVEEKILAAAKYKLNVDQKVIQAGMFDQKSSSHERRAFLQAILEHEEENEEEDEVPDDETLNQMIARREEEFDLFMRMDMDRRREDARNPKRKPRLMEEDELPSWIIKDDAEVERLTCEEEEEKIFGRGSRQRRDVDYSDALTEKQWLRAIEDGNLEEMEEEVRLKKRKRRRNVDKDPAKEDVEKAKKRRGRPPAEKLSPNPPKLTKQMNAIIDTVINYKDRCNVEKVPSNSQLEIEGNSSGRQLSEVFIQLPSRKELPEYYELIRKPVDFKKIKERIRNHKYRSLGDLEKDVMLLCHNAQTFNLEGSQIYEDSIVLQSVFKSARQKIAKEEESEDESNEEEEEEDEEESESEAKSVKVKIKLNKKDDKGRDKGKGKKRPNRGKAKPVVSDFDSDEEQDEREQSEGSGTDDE
As to the kind of experiment: ATPase catalytic activity of BRM, ADP-Glo in vitro biochemical assay. The conditions noted are these: for IC50: ATPase catalytic activity, ADP-Glo, 30 nM BRM, 400 μM ATP; for Ratio*: ratio of BRG1 IC50 to BRM IC50. An outline of the steps:
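Recombinant BRM (30 nM) hydrolysed 400 μM ATP with 20 nM salmon sperm DNA in pH 8 Tris buffer containing 20 mM MgCl2, 50 mM NaCl, 0.1% Tween-20 and 1 mM DTT, 1 h at room temperature. ADP formed was quantified by ADP-Glo luminescence.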

T1 sequence (P51532 whole entry): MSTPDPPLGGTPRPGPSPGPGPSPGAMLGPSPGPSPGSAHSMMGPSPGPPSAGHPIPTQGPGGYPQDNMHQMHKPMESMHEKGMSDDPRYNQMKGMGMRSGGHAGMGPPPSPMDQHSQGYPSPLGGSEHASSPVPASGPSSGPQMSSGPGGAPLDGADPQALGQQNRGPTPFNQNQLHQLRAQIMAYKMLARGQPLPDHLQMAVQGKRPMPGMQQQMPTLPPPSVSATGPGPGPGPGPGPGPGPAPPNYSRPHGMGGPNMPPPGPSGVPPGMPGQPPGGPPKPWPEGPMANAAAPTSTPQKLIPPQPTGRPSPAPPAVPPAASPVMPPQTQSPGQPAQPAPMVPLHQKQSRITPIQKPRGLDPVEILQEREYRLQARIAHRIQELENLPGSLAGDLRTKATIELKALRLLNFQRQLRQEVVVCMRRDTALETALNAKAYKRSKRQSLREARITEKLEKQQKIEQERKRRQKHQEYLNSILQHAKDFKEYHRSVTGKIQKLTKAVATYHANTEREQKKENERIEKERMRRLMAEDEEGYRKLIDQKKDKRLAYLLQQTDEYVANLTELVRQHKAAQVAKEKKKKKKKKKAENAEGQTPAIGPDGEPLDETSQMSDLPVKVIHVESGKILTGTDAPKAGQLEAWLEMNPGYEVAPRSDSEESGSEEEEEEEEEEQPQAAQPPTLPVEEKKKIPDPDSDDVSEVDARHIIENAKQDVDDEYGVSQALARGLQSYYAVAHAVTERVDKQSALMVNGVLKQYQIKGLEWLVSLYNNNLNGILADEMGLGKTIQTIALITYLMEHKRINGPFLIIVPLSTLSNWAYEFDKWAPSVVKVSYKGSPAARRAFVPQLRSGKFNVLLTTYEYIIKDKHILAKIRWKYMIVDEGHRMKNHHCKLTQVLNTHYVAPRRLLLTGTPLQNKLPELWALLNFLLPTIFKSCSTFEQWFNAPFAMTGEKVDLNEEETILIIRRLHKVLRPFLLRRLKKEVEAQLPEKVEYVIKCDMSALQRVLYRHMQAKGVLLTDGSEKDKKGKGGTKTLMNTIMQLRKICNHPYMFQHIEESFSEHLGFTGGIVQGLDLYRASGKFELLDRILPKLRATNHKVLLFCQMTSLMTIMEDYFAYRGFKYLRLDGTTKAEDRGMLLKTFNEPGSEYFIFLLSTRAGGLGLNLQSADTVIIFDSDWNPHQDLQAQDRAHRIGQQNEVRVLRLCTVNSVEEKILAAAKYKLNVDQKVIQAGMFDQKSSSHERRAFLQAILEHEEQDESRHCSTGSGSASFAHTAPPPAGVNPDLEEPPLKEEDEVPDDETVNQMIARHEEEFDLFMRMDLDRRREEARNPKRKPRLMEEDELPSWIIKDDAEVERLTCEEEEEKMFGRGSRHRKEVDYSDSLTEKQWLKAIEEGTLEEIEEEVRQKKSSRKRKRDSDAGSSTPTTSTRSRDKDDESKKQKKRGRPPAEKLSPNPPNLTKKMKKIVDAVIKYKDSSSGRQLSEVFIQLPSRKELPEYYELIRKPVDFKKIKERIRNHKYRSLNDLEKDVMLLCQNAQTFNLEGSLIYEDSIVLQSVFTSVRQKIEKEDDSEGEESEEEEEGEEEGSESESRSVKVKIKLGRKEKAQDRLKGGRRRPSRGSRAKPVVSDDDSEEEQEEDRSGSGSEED

Broadly, the IC50 is the concentration that gives 50% inhibition. `CO[C@H]1CCN(c2cccc(-c3ccc4cnc(CNC(=O)c5ccc6c(c5)S(=O)(=O)CCOC6)cc4n3)n2)C[C@@H]1C` [Compound 352]: the IC50 at BRG-1 stood at 483 nM. At BRM, the IC50 amounted to 60.2 nM and the “Ratio*” value stood at 8.02.
Regarding `CO[C@@H]1CCN(c2cccc(-c3ccc4cnc(CNC(=O)c5ccc6c(c5)S(=O)(=O)CCOC6)cc4n3)n2)C[C@H]1C` [Compound 353], the 50% inhibitory concentration (IC50) was 125 nM on BRG-1 and 9.5 nM against BRM. The “Ratio*” value on BRM was found to be 13.13.
For `Cc1cc(C(=O)NCc2cc3nc(-c4cccc(N5C[C@@H](C)O[C@@H](C)C5)n4)ccc3cn2)cc2c1COCCS2(=O)=O` [Compound 354] the same measures were 415 nM, 14 nM and 29.57.
For `C[C@@H]1CN(c2cccc(-c3ccc4cnc(CNC(=O)c5cc(C(F)F)c6c(c5)S(=O)(=O)CCOC6)cc4n3)n2)C[C@H](C)O1` [Compound 355] the same measures were 63.9 nM, 8.7 nM and 7.36.
For `O=C(NCc1cc2nc(-c3ccc(C(F)F)cc3OC3CC3)ccc2cn1)c1ccc2c(c1)S(=O)(=O)CCOC2` [Compound 357] the same measures were 293 nM, 21.4 nM and 13.72.
On to `COCCN(CC(F)F)c1cccc(-c2ccc3cnc(CNC(=O)c4ccc5c(c4)S(=O)(=O)CCOC5)cc3n2)n1` [Compound 358], for which the figures for the IC50 on BRG-1 and against BRM were 35.4 nM and 4.6 nM, respectively. Besides, on BRM, the “Ratio*” value was determined as 7.69.
For `CN(CCOC1CC1)c1cccc(-c2ccc3cnc(CNC(=O)c4ccc5c(c4)S(=O)(=O)CCOC5)cc3n2)n1` [Compound 361] the same measures were 145 nM, 7.4 nM and 19.62.
For `C[C@@H]1CN(c2cccc(-c3ccc4cnc(CNC(=O)c5ccc6c(c5)S(=O)(=O)[C@H](C)CC6)cc4n3)n2)C[C@H](C)O1` [Compound 362] the same measures were 238 nM, 16.9 nM and 14.06.
For `CC1Cc2ccc(C(=O)NCc3cc4nc(-c5cccc(N6C[C@@H](C)O[C@@H](C)C6)n5)ccc4cn3)cc2S1(=O)=O` (stereo partly drawn) [Compound 364], the IC50 at BRG-1 was 231 nM. On BRM, the IC50 was determined as 19 nM and the “Ratio*” value turned out to be 12.21.
For `CC(C)S(=O)(=O)c1cccc(C(=O)NCc2cc3nc(-c4cccc(N5C[C@@H](C)O[C@@H](C)C5)n4)ccc3cn2)c1` [Compound 365] the same measures were 325 nM, 13.1 nM and 24.88.
Regarding `COCCOc1cc(C(F)F)ccc1-c1ccc2cnc(CNC(=O)c3ccc4c(c3)S(=O)(=O)CCOC4)cc2n1` [Compound 366], on BRG-1, the IC50 worked out at 2960 nM. Also, at BRM, the midpoint of inhibition, the IC50, lay at 324 nM and the “Ratio*” value amounted to 9.14.
`O=C(NCc1cc2nc(N3CCOc4cccnc43)ccc2cn1)c1ccc2c(c1)S(=O)(=O)CCOC2` [Compound 367]: at BRG-1, the IC50 is 151 nM. Besides, on BRM, the IC50 was 8.4 nM and the “Ratio*” value is recorded as 17.87.
For the compound `COC[C@H]1C[C@@H]1c1cccc(-c2ccc3cnc(CNC(=O)c4ccc5c(c4)S(=O)(=O)CCOC5)cc3n2)n1` [Compound 369], the IC50 on BRG-1 was found to be 416 nM. Also, at BRM, the IC50 came out at 36.1 nM and the “Ratio*” value is listed as 11.52.
For `CCN(CC1COC1)c1cccc(-c2ccc3cnc(CNC(=O)c4ccc5c(c4)S(=O)(=O)CCOC5)cc3n2)n1` [Compound 370] the same measures were 152 nM, 14.6 nM and 10.43.
For `CCN(c1cccc(-c2ccc3cnc(CNC(=O)c4ccc5c(c4)S(=O)(=O)CCOC5)cc3n2)n1)[C@@H](C)COC` [Compound 372] the same measures were 117 nM, 10.9 nM and 10.78.
Take `COCCN(CC(C)(F)F)c1cccc(-c2ccc3cnc(CNC(=O)c4ccc5c(c4)S(=O)(=O)CCOC5)cc3n2)n1` [Compound 373]: the IC50 on BRG-1 was 138 nM. Further, at BRM, the IC50 came out at 12.9 nM and the “Ratio*” value turned out to be 10.75.
Turning to `COCCN(c1cccc(-c2ccc3cnc(CNC(=O)c4ccc5c(c4)S(=O)(=O)CCOC5)cc3n2)n1)C1CCC1` [Compound 374], the IC50 on BRG-1 worked out at 70.7 nM. At BRM, the IC50 came to 8.8 nM and the “Ratio*” value was 8.04.
In the case of `O=C(NCc1cc2nc(-c3cccc(OCC4CCC4)n3)ccc2cn1)c1ccc2c(c1)S(=O)(=O)CCOC2` [Compound 375], the IC50 on BRG-1 is 630 nM. Besides, at BRM, inhibition was half-maximal at 42.7 nM (IC50) and the “Ratio*” value was 14.74.
For `O=C(NCc1cc2nc(-c3cccc(C4CCOC4)n3)ccc2cn1)c1ccc2c(c1)S(=O)(=O)CCOC2` (stereo not drawn) [Compound 376] the same measures were 535 nM, 66.4 nM and 8.06.
Consider `O=C(NCc1cc2nc(-c3cccc([C@]45CCOCC4C5)n3)ccc2cn1)c1ccc2c(c1)S(=O)(=O)CCOC2` (stereo partly drawn) [Compound 377], for which the IC50 on BRG-1 worked out at 152 nM. Besides, at BRM, the IC50 was 12.4 nM and the “Ratio*” value amounted to 12.27.
For `O=C(NCc1cc2nc(-c3cccc([C@@]45CCOCC4C5)n3)ccc2cn1)c1ccc2c(c1)S(=O)(=O)CCOC2` (stereo partly drawn) [Compound 378] the same measures were 162 nM, 11.7 nM and 13.88.
Regarding `Cn1ncc2c1CCCN2c1ccc2cnc(CNC(=O)c3ccc4c(c3)S(=O)(=O)CCOC4)cc2n1` [Compound 380], the IC50 on BRG-1 was determined as 511 nM. Moreover, at BRM, it took 98.2 nM to reach half-maximal inhibition (IC50) and the “Ratio*” value turned out to be 5.20.
For `O=C(NCc1cc2nc(-c3cccc(OCC4CC4)n3)ccc2cn1)c1ccc2c(c1)S(=O)(=O)CCOC2` [Compound 381] the same measures were 241 nM, 19.4 nM and 12.43.
For `CN(C[C@@H]1CCO1)c1cccc(-c2ccc3cnc(CNC(=O)c4ccc5c(c4)S(=O)(=O)CCOC5)cc3n2)n1` [Compound 382] the same measures were 120 nM, 9.1 nM and 13.22.
For `CN(C[C@H]1CCO1)c1cccc(-c2ccc3cnc(CNC(=O)c4ccc5c(c4)S(=O)(=O)CCOC5)cc3n2)n1` [Compound 383] the same measures were 72.4 nM, 6.6 nM and 10.88.
For `C[C@H]1COCc2ccc(C(=O)NCc3cc4nc(-c5cccc(OC(F)F)n5)ccc4cn3)cc2S1(=O)=O` [Compound 384], the IC50 on BRG-1 stood at 407 nM. Besides, at BRM, the IC50 came out at 14.3 nM and the “Ratio*” value turned out to be 28.41.
Take `COc1cc(Cl)ccc1-c1ccc2cnc(CNC(=O)c3ccc4c(c3)S(=O)(=O)[C@@H](C)COC4)cc2n1` [Compound 386]: the half-inhibitory concentration (IC50) at BRG-1 was determined as 140 nM; on BRM, 9.2 nM. Moreover, the “Ratio*” value at BRM worked out at 15.24.
For `COc1cc(C2CC2)ccc1-c1ccc2cnc(CNC(=O)c3ccc4c(c3)S(=O)(=O)CCOC4)cc2n1` [Compound 387] the same measures were 727 nM, 68.3 nM and 10.65.
For `C[C@H]1COCc2ccc(C(=O)NCc3cc4nc(-c5cccc(OC(F)(F)F)n5)ccc4cn3)cc2S1(=O)=O` [Compound 388] the same measures were 587 nM, 18.4 nM and 31.86.
In the case of `C[C@@H]1CN(c2cccc(-c3ccc4cnc(CNC(=O)c5cc(Cl)c6c(c5)S(=O)(=O)CCOC6)cc4n3)n2)C[C@H](C)O1` [Compound 389], the IC50 is 528 nM at BRG-1 and 13.7 nM at BRM. Further, the “Ratio*” value at BRM stood at 38.63.
Take `O=C(NCc1cc2nc(-c3cccc(OCC4CC(F)(F)C4)n3)ccc2cn1)c1ccc2c(c1)S(=O)(=O)CCOC2` [Compound 390]: on BRG-1, the IC50 came to 1050 nM. At BRM, the IC50 was determined as 60.7 nM and the “Ratio*” value came to 17.24.
For `O=C(NCc1cc2nc(-c3cccc(OCC4CC4(F)F)n3)ccc2cn1)c1ccc2c(c1)S(=O)(=O)CCOC2` (stereo not drawn) [Compound 391] the same measures were 456 nM, 28.7 nM and 15.87.
On to `C[C@H]1COCc2ccc(C(=O)NCc3cc4nc(-c5cccc([C@H]6CC6(F)F)n5)ccc4cn3)cc2S1(=O)=O` [Compound 392], for which, at BRG-1, the IC50 turned out to be 1100 nM. For the same compound, at BRM, 42.1 nM corresponded to half-maximal inhibition (IC50) and the “Ratio*” value came out at 26.15.
For `C[C@H]1COCc2ccc(C(=O)NCc3cc4nc(-c5cccc([C@@H]6CC6(F)F)n5)ccc4cn3)cc2S1(=O)=O` [Compound 393] the same measures were 638 nM, 19 nM and 33.52.
For `O=C(NCc1cc2nc(N3CCCc4cc(C5CC5)cnc43)ccc2cn1)c1ccc2c(c1)S(=O)(=O)CCOC2` [Compound 394] the same measures were 87.9 nM, 5.8 nM and 15.21.
In the case of `Cc1cnc2c(c1)CCCN2c1ccc2cnc(CNC(=O)c3cc(F)c4c(c3)S(=O)(=O)CCOC4)cc2n1` [Compound 395], on BRG-1, the IC50 came out at 58.6 nM. At BRM, half-maximal inhibition (IC50) required 4.1 nM and the “Ratio*” value stood at 14.47.
For the compound `Cc1cnc2c(c1)CCCN2c1ccc2cnc(CNC(=O)c3ccc4c(c3)S(=O)(=O)[C@@H](C)COC4)cc2n1` [Compound 396], the IC50 at BRG-1 came to 104 nM. For the same compound, at BRM, it took 5.9 nM to reach half-maximal inhibition (IC50) and the “Ratio*” value is given as 17.40.
For `Cn1c(C(F)F)cc2c(-c3ccc4cnc(CNC(=O)c5ccc6c(c5)S(=O)(=O)CCOC6)cc4n3)ccnc21` [Compound 397] the same measures were 175 nM, 15.2 nM and 11.51.
